Values of other authors in article PMC7465353, “Antioxidant Effects of PS5, a Peptidomimetic of Suppressor of Cytokine Signaling 1, in Experimental Atherosclerosis” (Antioxidants, 2020).

Tested on: VSMCs

Substance: KIR peptide: peptide encompassing residues 52–67, i.e., kinase inhibitory region (KIR) of SOCS1 (DTHFRTFRSHADYRRI; UniProt O15524 52-67, looked up, fragment)
- VSMC migration, wound healing: significantly diminished the migration and proliferation
